Measured values published in patent publication US11226337B2, “Chemoproteomic profiling of protein electrophilic and oxidative post-translational modifications” (Zenagem, LLC, priority 2017, dated 2022).

Columns and labels:
[1] = test system: HEK293T cells; experiment: gel-based in situ probe labelling (rhodamine-azide, in-gel fluorescence); type: cell-based, human; conditions: soluble and membrane proteomes, 30 minutes
Experimental: For gel-based experiments, cells were plated and grown to near complete confluence at the time of treatment. Cells were washed with cold phosphate buffered saline (PBS, pH 7.4) and replenished with serum-free DMEM (˜15% of normal passage volume, e.g. a 10 cm plate normally passaged with 10 mL media received 1.5 mL) supplemented with 10 mM Na-HEPES buffer (pH 7.5). Unless otherwise indicated, cells were incubated with probes (3 mM and 1 mM for probes 1 and 2, respectively) in the absence or presence of 10-fold excess non-clickable competitor probes (30 mM and 10 mM for 3 and 4, respectively) for 0.5 hour at 37° C. When applicable, probe and competitor were premixed before co-administering to the cells.
The cells were lysed, and the cell proteomes were conjugated to a rhodamine-azide (Rh—N3) reporter tag.
Soluble proteomes from treated cells were diluted to 1 mg/mL. To each sample (50 μL), a freshly prepared “click” or CuAAC reagent mixture (6 μL) containing 0.1 mM tris(benzyltriazolylmethyl)amine (TBTA) (3 μL/sample, 1.7 mM in 4:1 DMSO:t-BuOH), 1 mM CuSO4 (1 μL/sample, 50 mM in H2O), 25 μM azide-rhodamine (1 μL/sample, 1.25 mM in DMSO), and freshly prepared 1 mM tris(2-carboxyethyl)phosphine (TCEP) (1 μL/sample, 50 mM in PBS or H2O) was added to conjugate the fluorophore to probe-labelled proteins. TBTA was purchased from TCI and azide-rhodamine was synthesized as previously described^64. Upon addition of the click mixture, each reaction was immediately mixed by vortexing and then allowed to react at ambient temperature for 1 hour before quenching the reactions with SDS loading buffer (4× stock, 17 μL). Proteins (˜25 μg total protein loaded per gel lane) were resolved by SDS-PAGE (10% acrylamide) and visualized by in-gel fluorescence scanning on a Hitachi FMBIO-II or BioRad ChemiDoc MP flatbed fluorescence scanner.

[2] = molecular target: T1, AMD1 (Homo sapiens, UniProt P17707); experiment: probe labelling of E. coli cells expressing the protein; type: cell-based; conditions: probe 1 3 mM or probe 2 1 mM, 37° C., 0.5 hour
T1 construct: made in house; host or cells: E. coli (intact cells treated with probe)
Experimental: Induced overnight cultures expressing each protein were resuspended in serum-free DMEM supplemented with 10 mM Na-HEPES buffer (pH 7.5) such that the final OD600 was ˜10. The probes were added to the cells (3 and 1 mM, respectively, for 1 and 2) and incubated at 37° C. for 0.5 hour. Note that these are the same conditions used for treatment of mammalian cells. The cells were pelleted (16,000 g, 3 min, 4° C.), washed with PBS (2×1 mL), and resuspended in HEPES buffer or PBS maintaining the same initial volume. Cells were lysed by sonication, debris was pelleted, soluble protein was diluted to 0.5 mg/mL with PBS and probe-labelled proteins were conjugated to rhodamine-azide and visualized as described above in Example 2.

[3] = test system: HEK293T and MDA-MB-231 cells; experiment: determination of high-reactivity protein targets (SILAC RP-ABPP); type: cell-based, human; conditions: enrichment ratio >5 and competition ratio >4
Experimental: To further eliminate false positives and any stochastic variability in the data, protein ratios were then determined by the median peptide ratio derived from three or more unique quantified peptides. Protein ratios that complied with these criteria from a single experiment were then averaged with ratios acquired from ≥3 replicates to provide final values for each type of experiment in both cell lines with both probes. […] Most importantly, there are no robustly measured ratios for proteins identified as probe 1 targets that had measured ratios of ˜1 with probe 2. […]
Two types of experiments were performed—1) direct enrichment of probe 1-labelled proteins from heavy cells in comparison to light control cells treated with the non-clickable hydrazine (3) at the same concentration as 1 (3 mM for 0.5 h); and 2) competition experiments where both heavy and light cells were treated probe 1, but light cells were also treated with 10× competitor 3 (FIG. 3A)—in two different human cell lines (HEK293T cells and the human breast cancer cell line MDA-MB-231). […] The target list was further refined by requiring that each protein was detected with a minimum of three unique quantified peptides per experiment and by averaging protein ratios across three or more biological replicates per cell line.

T1 sequence (P17707 68-334): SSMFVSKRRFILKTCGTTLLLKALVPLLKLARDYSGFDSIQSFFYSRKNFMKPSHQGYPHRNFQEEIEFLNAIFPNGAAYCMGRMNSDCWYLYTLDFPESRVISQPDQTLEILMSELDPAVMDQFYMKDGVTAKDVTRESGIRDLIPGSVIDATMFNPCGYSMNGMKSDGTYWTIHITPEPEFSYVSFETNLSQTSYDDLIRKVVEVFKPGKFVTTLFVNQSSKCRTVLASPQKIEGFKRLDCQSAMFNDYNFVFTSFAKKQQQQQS
T1 sequence (P17707 2-67): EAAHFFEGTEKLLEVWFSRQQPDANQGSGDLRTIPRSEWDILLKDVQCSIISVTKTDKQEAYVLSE

SMILES	protein labeling, in-gel fluorescence ([1]; hydrochloride)	probe labelling of protein expressed in E. coli [2]	number of high-reactivity proteins [3]	protein labeling, in-gel fluorescence [1]
C#CCNN.Cl [probe 1, prop-2-yn-1-ylhydrazine hydrochloride]	Concentration-dependent protein labeling	reacts well	ten	–
C#CCCNC(=O)c1ccc(NN)cc1.Cl [probe 2, N-(but-3-yn-1-yl)-4-hydrazinylbenzamide hydrochloride]	–	reacts well	33	Concentration-dependent protein labeling
